Data set [1] has as its system HaCaT cells. Kind of data set: Cytotoxic and photocytotoxic activities before and after UVA irradiation. It counts as cell-based, human. The conditions noted are these: for IC50: Homo sapiens, light or radiation study, HaCaT cells; for Photo-Irritancy Factor (PIF), formal PIF: formal PIF = *1.0 = Cmax(−UV)/Cmax(+UV). On the procedure:
Briefly, 100 µL per well of a cell suspension of HaCaT cells (ATCC) at 120,000 cells/mL were maintained in a RPMI culture medium with 5% of calf serum at 37 °C under 5% CO2 for 24 h for formation of monolayers. At t = 24 h, two 96-well plates per test chemical were preincubated for 1 h with seven different concentrations of the tested compounds and extract (ranging from 1 µg/mL to 200 µg/mL). Chlorpromazine was used as the positive control. To allow results comparison and due to the presence of extract, concentrations are expressed in µg/mL.
For both assays, each concentration and all tests were done in triplicate and the results averaged. The percentage inhibition at steady state for each dilution was used to calculate the IC50 values.

For data set [2] the following is noted: cited from earlier work; for SPF: commercial organic UV-filters, lower limit for commercial sunscreen 6.
A short description of data set [3]: In vitro screening method for sun protection indexes (SPF, PF-UVA, λc, ISP, SUI) from UV absorbance 290–400 nm. It counts as physicochemical. How it is done:
Photoprotective effectiveness is evaluated through photoprotective indexes such as SPF, PF-UVA, and critical wavelength (λc) (an indicator of the filter capacity to protect in the UVA range), as well as Spectral Uniformity Index (SUI) and Ideal Spectral Profile (ISP), two indexes recently defined by Diffey to focus on protection across the entire ultraviolet spectrum. They calculate the goodness of fit of the spectral profile to the ideal flat profile. SPF and PF-UVA measure the filter efficacy against UVB or UVA. SPF measurement is currently determined in vivo through determination of the erythemal reaction on human volunteers. For economical and ethical reasons, many alternative in vitro methods have been developed to measure SPF and also PF-UVA, λc or SUI and ISP. Unfortunately, despite concerted efforts around the globe between different commissions, none of them guarantees a good correlation with in vivo measurements. Moreover, all these in vitro methods require an amount of active raw material generally ≥100 mg and prevent the evaluation of compounds in minute amounts. The photoprotective indexes have been then determined thanks to a new method (see SM) especially developed to cope with the low availability of the compounds. Twelve commercial organic UV-filters, the photoprotective indexes of which were published (Table S3 in SM), encompassing a 1–24 SPF range were used for the development. It can be noted that the SPF values of benzophenone-3 (oxybenzone), PEG-25 PABA, homosalate, polysilicone 15 and 4-Methylbenzylidene Camphor are under 6, the value commonly accepted as the lower limit for commercial sunscreen. However, the efficient value of commercialized emulsion can be explained by the formulation of several organic and mineral filters. The similarity of the results (r^2 = 0.98 for published SPF vs. herein SPF, see Figure S1 in SM) supported the new method validity. Routinely, ethylhexyl methoxycinnamate (OMC) was used as positive control. Based on the SPF, λc, PF-UVA, SUI and ISP values obtained with marketed organic filters and on their UV range protection (Table S3 in SM), a decision tree was built to categorize the filters (Figure 3). Considering the herein SPF values of the filters cited above (around 2), the first condition to select a candidate is SPF > 2. Restricted UVA or UVB filters can be discriminated through the λc value (>370 nm) and PF-UVA (>2) for UVA and SUI (>1.2) and ISP (<90) for UVB. A large spectral protection (UVA + UVB) could be evaluated by combining the four criteria.
A new in vitro screening method based on spectrophotometric data was used to evaluate sun protection indexes such as SPF, PF-UVA, the critical wavelength λc, ISP and SUI. Its development was first conducted in a cuvette using twelve commercial organic filters encompassing a large range of SPF values (1 < SPF < 25) and then transposed in a 96-wells plate. Following the International recommendations, maximal concentrations never overtook 10% whatever the commercial filters or the lichens extracts or compounds considered. This new method faces some product availability limitation, which is a common shortcoming for natural products or metabolites (see all development in SM).
The scheme of solution preparation to record the experimental values is depicted in Figure 9. The sample (S4) was prepared at 0.02 mg/mL from stock solutions of filter candidate (S2) and of emulsion (S1) (See emulsion preparation in SM) taking into account the maximal concentration. The experimental absorbances Aλ were recorded in the 290–400 nm range versus a blank solution (S3) in a cuvette with a double beam spectrophotometer or in a 96-wells plate filled with 180 µL of solution by well. […] The diagram is described for final volumes of 50 mL, 100 µL, 25 mL and 25 mL for S1, S2, S3 and S4 solutions, respectively. Smaller volumes can easily be prepared. Solutions S2 and S4 were prepared in duplicate. […]

Data set [4] is described as follows: Stability of photoprotection indexes after UVA or UVB irradiation. It counts as physicochemical. The conditions noted are these: for photostability: UVA and UVB. On the procedure:
One hundred eighty microliters of solution in 96-well plates were irradiated by UVA (2 J/cm^2) or UVB ([…]). The absorbances were then recorded and photoprotective indexes were calculated as described above. The stability was evaluated by comparison between indexes described previously (Section 3.5.1) and obtained before and after irradiation. Two independently prepared solutions were studied and OMC was used as a positive control.

Data set [5] in a line: NBT assay (superoxide anion scavenging, non-enzymatic NADH/PMS). It counts as biochemical. How it is done: Measurements of superoxide anion scavenging activity in 96-well microplates was based on the non-enzymatic method previously described with some modifications. The reaction mixture in the sample wells consisted of NADH (78 µM), nitro-blue tetrazolium (NBT) (50 µM), phenazine methosulfate (PMS) (10 µM), and lichen compounds (10, 20, 40, 80 µg/mL). The reagents were dissolved in 16 mM tris-hydrochloride buffer, at pH = 8 except for all the lichen compounds/extract which were dissolved in DMSO. After 5 min of incubation at room temperature, the spectrophotometric measurement was performed at 560 nm against blanks (without PMS nor sample).
(§1) For both assays, each concentration and all tests were done in triplicate and the results averaged. Ascorbic acid was used as a positive control. The percentage inhibition at steady state for each dilution was used to calculate the IC50 values. This gave the amount of antioxidant required (measured as the concentration of the stock solution added to the reaction mixture) to either scavenge 50% of O2^− or 50% of DPPH radicals: the lower the values, the higher the scavenging activity towards O2^−.

Data set [6] is described as follows: NBT antioxidant assay of compounds in combination (isobologram, combination index). It counts as biochemical. On the procedure:
For each drug ratio (Tables S5 and S6 in SM), the antioxidant inhibition was evaluated as previously described (2.6.1).
The antagonistic, synergistic or additive effect of the combination depends on the combination index value (CI) (Equation (1)). […] (IC50)X is the value of the IC50 of compound X alone.
For both assays, each concentration and all tests were done in triplicate and the results averaged.

The nature of data set [7]: DPPH assay (reducing activity). It counts as biochemical. How it is done: Reducing activity of compounds 1–3 and crude extract on the 1,1′-diphenyl-2-picrylhydrazyl free radical (DPPH) and scavenging activity on superoxide anion were measured as previously described. Briefly, the scavenging activity of the lichen compounds on DPPH was measured using the Matsukawa method with some modifications. A reaction mixture containing 100 µL of DPPH (0.5 mM) in methanol and 10 µL of the lichen compound solutions in DMSO to give final concentrations of 19, 56, 167 and 500 µg/mL per well, was distributed in each microplate well. To allow results comparison and due to the presence of extract, concentrations are expressed in µg/mL. The absorbances were recorded at 540 nm after 30 min.
as §1
Background: The DPPH test is a chemical assay of radical scavenging.

Data set [8] relates to HaCaT cells. The conditions noted are these: human. How it is done: For each drug ratio (Tables S7 and S8 in SM), the cytotoxicity was evaluated as previously described (2.7.1).
For both assays, each concentration was done in triplicate and the results averaged.

[9] abbreviates: with UVA irradiation, read-out: IC50 ± SD With Irradiation.
The mark [10] stands for this setting: without irradiation, read-out: IC50 ± SD Without Irradiation.
Where [11] appears, read: before irradiation, new in vitro method.

This is an account of results in article PMC6152234, “Specialized Metabolites of the Lichen Vulpicida pinastri Act as Photoprotective Agents” (Molecules : A Journal of Synthetic Chemistry and Natural …, 2017).

In brackets after ≈: the same amount, converted by molar mass. Where two headings read alike, the source gives them in different places. Marks after values point to notes of the source that are not given here.

As for `CN(C)CCCN1c2ccccc2Sc2ccc(Cl)cc21` [Chlorpromazine, reference compound], the results for the IC50 in the data set with HaCaT cells [1] (setting [9]) and with HaCaT cells [1] (setting [10]) were 2.4 ± 0.3 µg/mL (≈ 7.53 µM) and 13.2 ± 1.7 µg/mL (≈ 41.4 µM), respectively. Moreover, the “Photo-Irritancy Factor (PIF)” value with HaCaT cells [1] (PIF = IC50(−UV)/IC50(+UV), PIF < 5 no phototoxic potential) was 5.5 ^d.

As to `COc1ccc(C(=O)c2ccccc2)c(O)c1` [benzophenone-3 (oxybenzone), benzophenone-3], in data set [2], the SPF entry is “under 6”.

As for `CCCCC(CC)COC(=O)C=Cc1ccc(OC)cc1` (stereo not shown) [OMC, ethylhexyl methoxycinnamate, reference compound], in data set [3] (before irradiation), the “ISP (Ideal Spectral Profile)” value turned out to be 105%, the PF-UVA amounted to 1.6, the “SUI (Spectral Uniformity Index)” value was 1.1 and the “critical wavelength (λc)” value is on record as 330 nm. Besides, the SPF in data set [3] (setting [11]) was 10.4. Also, in data set [3] (cuvette, dissolved in DMSO), the SPF came to 10.1. For the same compound, the SPF in data set [3] (cuvette, dissolved in THF) is recorded as 9.6. The “decrease in indexes after irradiation” value in data set [4] (UVA or UVB irradiation) is listed as 25%.

As to `COC(=O)/C(=C1/OC(=O)C(c2ccc(OC)cc2)=C1O)c1ccccc1` [Pinastric acid, pinastric acid], in data set [5], the “NBT Assay IC50 ± SD” value stood at 70.0 ± 23.0 µg/mL. In addition, the “Superoxide anion scavenging activity (% inhibition)” value in data set [6] (Table S7, pinastric acid alone 17.5 µg/mL) was determined as 25.0%; in data set [6] (Table S7, pinastric acid alone 35.0 µg/mL), 37.0%; in data set [6] (Table S7, pinastric acid alone 52.5 µg/mL), 44.0%; in data set [6] (Table S7, pinastric acid alone 70.0 µg/mL) it was 50.0%. The “DPPH Assay IC50 ± SD” value in data set [7] worked out at 80.0 ± 8.0 µg/mL. The IC50 with HaCaT cells [1] (setting [9]) and in the data set on HaCaT cells [1] (setting [10]) was greater than 200 µg/mL throughout. In the data set with HaCaT cells [1], the “Photo-Irritancy Factor (PIF), formal PIF” value is recorded as “*1.0 ^c”. Besides, the “ISP (Ideal Spectral Profile)” value in data set [3] (before irradiation) is 61%. Besides, the PF-UVA in data set [3] (before irradiation) is on record as 1.8. Moreover, the “SUI (Spectral Uniformity Index)” value in data set [3] (before irradiation) stood at 1.9. The “critical wavelength (λc)” value in data set [3] (before irradiation) was found to be 386 nm. Moreover, in data set [3] (setting [11]), the SPF was determined as 4.1. For the same compound, the photostability result in data set [4] was “photostable in the UVA and UVB ranges”.

`Cc1ccc(/C=C2/C(=O)C3(C)CCC2C3(C)C)cc1` (stereo not shown) [4-Methylbenzylidene Camphor]: the SPF entry in data set [2] was “under 6”.

As to `CCCCC(CC)COc1ccc(-c2nc(-c3ccc(OC)cc3)nc(-c3ccc(OCC(CC)CCCC)cc3O)n2)c(O)c1` (stereo not shown) [anisotriazine, Bis-Ethylhexyloxyphenol Methoxytphenyl Triazine, reference compound], the “published SPF” value in data set [2] (reference value, ref 6–8 of supplement) was 23.9. In data set [3] (cuvette, dissolved in DMSO), this compound displayed an SPF of 1.8.

For the compound PEG-25 PABA, in data set [2], the SPF entry was “under 6”.

For the compound `CC1CC(OC(=O)c2ccccc2O)CC(C)(C)C1` (stereo not shown) [homosalate], the SPF result in data set [2] is on record as “under 6”.

For the compound `O=C1O[C@H]([C@@H](O)CO)C(O)=C1O` [Ascorbic acid, reference compound], the “NBT Assay IC50 ± SD” value in data set [5] was 3.0 ± 0.4 µg/mL. Besides, the “DPPH Assay IC50 ± SD” value in data set [7] came to 12.5 ± 0.5 µg/mL.

On to `COC(=O)/C(=C1/OC(=O)C(c2ccccc2)=C1O)c1ccccc1` [Vulpinic acid, vulpinic acid], for which the “NBT Assay IC50 ± SD” value in data set [5] came to 30.0 ± 3.0 µg/mL. The “Superoxide anion scavenging activity (% inhibition)” value in data set [6] (Table S6, vulpinic acid alone 7.5 µg/mL) came out at 22.0%; in data set [6] (Table S6, vulpinic acid alone 15.0 µg/mL) it was 30.0%; in data set [6] (Table S6, vulpinic acid alone 22.5 µg/mL), 42.0%; in data set [6] (Table S6, vulpinic acid alone 30.0 µg/mL), 50.0%. For the same compound, in data set [7], the “DPPH Assay IC50 ± SD” value was 55.0 ± 8.0 µg/mL. Besides, the IC50 in the data set on HaCaT cells [1] (setting [9]) and in the data set with HaCaT cells [1] (setting [10]) was greater than 200 µg/mL in each case. Also, the “Photo-Irritancy Factor (PIF), formal PIF” value with HaCaT cells [1] is recorded as “*1.0 ^c”. In data set [3] (before irradiation), the “ISP (Ideal Spectral Profile)” value is on record as 19%. The PF-UVA in data set [3] (before irradiation) is 3.9. In addition, in data set [3] (before irradiation), the “SUI (Spectral Uniformity Index)” value turned out to be 7.6. In data set [4], the photostability result is “photostable in the UVA and UVB ranges”. The Percentage of cytotoxicity in the data set on HaCaT cells [8] (5 µg/mL) and in the data set with HaCaT cells [8] (20 µg/mL) was 0.0% each time.
